From patent publication US4496590A, “Benzyl alcohol derivatives, their preparation and use” (Sterling Drug Inc., priority 1983, dated 1985) come the findings set out here.

Assay [1] addresses T1, cyclooxygenase (Rattus norvegicus, UniProt Q63921).
T1 construct: 14C-arachidonic acid substrate, PGD2 measured
T1 sequence (Q63921 27-602): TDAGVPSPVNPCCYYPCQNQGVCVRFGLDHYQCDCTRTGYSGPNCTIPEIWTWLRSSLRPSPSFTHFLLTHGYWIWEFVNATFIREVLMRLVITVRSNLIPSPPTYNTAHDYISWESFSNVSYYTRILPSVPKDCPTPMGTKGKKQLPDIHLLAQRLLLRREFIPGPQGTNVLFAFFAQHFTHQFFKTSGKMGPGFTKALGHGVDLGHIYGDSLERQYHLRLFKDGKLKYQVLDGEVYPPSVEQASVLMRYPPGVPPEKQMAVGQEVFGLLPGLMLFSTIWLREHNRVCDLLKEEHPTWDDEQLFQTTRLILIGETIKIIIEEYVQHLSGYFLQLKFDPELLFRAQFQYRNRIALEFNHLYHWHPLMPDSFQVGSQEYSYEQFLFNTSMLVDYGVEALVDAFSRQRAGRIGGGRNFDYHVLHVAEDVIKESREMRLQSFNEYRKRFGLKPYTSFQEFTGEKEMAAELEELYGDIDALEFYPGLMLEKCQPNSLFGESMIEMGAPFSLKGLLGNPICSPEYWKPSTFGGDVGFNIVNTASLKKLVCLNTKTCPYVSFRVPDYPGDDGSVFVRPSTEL
As to the kind of experiment: inhibition of cyclooxygenase derived from rat basophilic leukemia (RBL-1) cells (PGD2 formation, C1). To be noted: RBL-1 enzyme, read-out: % Inhibition C1 (cyclooxygenase product PGD2). The format is biochemical. The protocol: (§1) The primary screening test used is a determination of the inhibition of lipoxygenase and cyclooxygenase derived from rat basophilic leukemia (RBL-1) cells. The test was carried out according to the following procedure:
(§2) Single cell suspensions of RBL-1 cells are homogenized to obtain the microsomal fraction containing lipoxygenase and cyclooxygenase. Test compounds are added to the enzyme-containing homogenate for a 5 min preincubation period at 37° C. prior to the addition of ^14 C-arachidonic acid substrate. Following incubation at 37° C. for 15 min, the reaction is stopped by the addition of 2M formic acid and the enzyme-substrate products are extracted into chloroform. An aliquot of the extract is evaporated to dryness, reconstituted in ether to 1/10 original volume, spotted on thin layer chromatography plates and chromatographed. The peak areas of radioactivity representing the products are located by scanning the plates. The quantity of products formed is estimated by measuring the height of the radioactivity peaks observed on the chromatographic scans. Alternatively, the areas of radioactivity are scraped from the plate and the ^14 C quantitated by scintillation counting. The percent inhibition in the formation of the cyclooxygenase product PGD2, designated as Cl and lipoxygenase products, L1 designated for 5,12-di-HETE and L2 for 5-HETE are shown. Compounds with >50% inhibition of L1 and L2 at a screening concentration of 1 μM are considered active.
(§3) ^(a) Percent inhibition of cyclooxygenase (C1) and lipoxygenase (L1
(§4) and L2) formation at a dose of 1 μM.
(§5) ^(b) Inhibitory concentration (μ M) in 50% of tests.

The target in assay [2] is T2, lipoxygenase (Rattus norvegicus, UniProt P12527).
T2 construct: Single cell suspensions of RBL-1 cells are homogenized to obtain the microsomal fraction containing lipoxygenase and cyclooxygenase; endogenous in cells; host or cells: RBL-1 (rat basophilic leukemia) cells, homogenate / microsomal fraction
T2 sequence (P12527 1-673): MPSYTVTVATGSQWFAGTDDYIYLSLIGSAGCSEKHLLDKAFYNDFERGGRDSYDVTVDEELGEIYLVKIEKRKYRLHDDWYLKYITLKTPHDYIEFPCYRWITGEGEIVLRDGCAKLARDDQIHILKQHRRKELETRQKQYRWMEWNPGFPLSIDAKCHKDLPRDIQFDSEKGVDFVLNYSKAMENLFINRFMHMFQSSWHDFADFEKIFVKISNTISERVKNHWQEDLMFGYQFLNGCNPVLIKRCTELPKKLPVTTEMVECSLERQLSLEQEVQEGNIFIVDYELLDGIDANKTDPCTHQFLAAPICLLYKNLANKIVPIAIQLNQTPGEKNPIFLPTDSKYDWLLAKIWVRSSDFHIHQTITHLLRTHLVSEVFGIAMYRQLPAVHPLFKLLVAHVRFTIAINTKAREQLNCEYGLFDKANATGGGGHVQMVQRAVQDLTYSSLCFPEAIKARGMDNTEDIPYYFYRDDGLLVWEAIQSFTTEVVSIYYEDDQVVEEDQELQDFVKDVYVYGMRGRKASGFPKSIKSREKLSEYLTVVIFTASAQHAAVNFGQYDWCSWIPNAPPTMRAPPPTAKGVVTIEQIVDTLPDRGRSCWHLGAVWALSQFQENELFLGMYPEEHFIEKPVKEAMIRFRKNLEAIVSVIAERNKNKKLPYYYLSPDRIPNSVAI
As to the kind of experiment: inhibition of lipoxygenase derived from rat basophilic leukemia (RBL-1) cells (L1 5,12-di-HETE and L2 5-HETE formation). The format is biochemical. To be noted: RBL-1 enzyme. The protocol: as §1, §2, §3, §4, §5

Assay [3] relates to SRS-A component of immunologically induced broncho-construction. As to the kind of experiment: effect on the SRS-A component of immunologically induced bronchoconstriction in guinea pigs. To be noted: i.v.; for ED50: Cavia porcellus, iv, guinea pig, indomethacin + chlorpheniramine medicated, arachidonic acid, antigen challenge, read-out: In vivo Guinea Pig ED50 i.v. The format is in vivo. The protocol: The test was carried out according to the following procedure:
Two weeks after immunization with egg albumin, guinea pigs are prepared for bronchoconstruction determination. One hour prior to antigen challenge, each animal is dosed orally with idomethacin and chlorpheniramine. Animals are anesthetized with sodium pentobarbital, the trachea cannulated and the animal artifically respired. Arachidonic acid is administered intravenously prior to antigen challenge. The resulting bronchoconstruction is recorded by the standard lung overflow procedure and the peak increase in intratracheal pressure (mm Hg) over a 10 minute observation period is recorded. Compounds are evaluated for their ability to prevent the increased intratracheal pressure in an experimental group of animals as compared to the medicated (indomethacin+chlorpheniramine+arachidonic acid) control group. The results are expressed in terms of percent inhibition or as ED50 values (effective does in 50% of the animals).

Where [4] appears, read: L1 5,12-di-HETE, read-out: % Inhibition L1 (lipoxygenase product 5,12-di-HETE).
Setting [5] is: L2 5-HETE, read-out: % Inhibition L2 (lipoxygenase product 5-HETE).
The mark [6] stands for this setting: L1 5,12-di-HETE, read-out: IC50 L1 (lipoxygenase product 5,12-di-HETE).
Where [7] appears, read: L2 5-HETE, read-out: IC50 L2 (lipoxygenase product 5-HETE).

Structures are written as SMILES. Where two headings read alike, the source gives them in different places.

As to `COc1ccc(N=C2C=CC(=O)C=C2)c(CO)c1` [Example 8, 4-(2-Hydroxymethyl-4-methoxyphenylimino)-2,5-cyclohexadien-1-one], the inhibition – broadly, the drop in the measured response relative to a control, in per cent – at 1 µM in assay [1] was 0%; in assay [2] (setting [4]) it was 85%; in assay [2] (setting [5]), 96%. Also, the results for the 50% inhibitory concentration (IC50) in assay [2] (setting [6]) and in assay [2] (setting [7]) were 0.19 µM and 0.15 µM, respectively. Further, the 50% effective dose (ED50) – broadly, the dose that gives a 50% effect, or the effect in half of the subjects – in assay [3] stood at 0.12 mg/kg.

For `OCc1cc(Cl)ccc1Nc1ccc(O)cc1` [Example 3c, 5-Chloro-2-(4-hydroxyphenylamino)benzenemethanol], the results for the inhibition at 1 µM in assay [1], in assay [2] (setting [4]) and in assay [2] (setting [5]) were 6%, 81% and 99%, respectively. The results for the IC50 in assay [2] (setting [6]) and in assay [2] (setting [7]) were 0.06 µM and 0.04 µM, respectively. For the same molecule, the median effective dose (ED50) in assay [3] was 0.49 mg/kg.

As to `OCc1ccc(Cl)cc1Nc1ccc(O)cc1` [Example 4c, 4-Chloro-2-(4-hydroxyphenylamino)benzenemethanol], the inhibition at 1 µM in assay [1] was 24%; in assay [2] (setting [4]), 82%; in assay [2] (setting [5]) it was 100%. Moreover, the IC50 (in general, the midpoint of a concentration-inhibition curve) in assay [2] (setting [6]) was found to be 0.23 µM; in assay [2] (setting [7]) it was 0.16 µM. The “In vivo Guinea Pig percent inhibition” value worked out at 43% in assay [3] (0.3 mg/kg) and 63% in assay [3] (1-3 mg/kg).

`CC(O)c1ccccc1Nc1ccc(O)cc1` (stereo not drawn) [Example 5c, 2-(4-Hydroxyphenylamino)-α-methylbenzenemethanol]: the inhibition at 1 µM in assay [1] was determined as 14%; in assay [2] (setting [4]), 86%; in assay [2] (setting [5]), 99%. The figures for the half-inhibitory concentration (IC50) in assay [2] (setting [6]) and in assay [2] (setting [7]) were 0.2 µM and 0.18 µM, respectively.

With `COc1ccc(Nc2ccc(O)cc2)c(C(C)O)c1` (stereo not drawn) [Example 6c, 2-(4-Hydroxyphenylamino)-5-methoxy-α-methylbenzenemethanol], the inhibition at 1 µM in assay [1] came out at 2%; in assay [2] (setting [4]), 89%; in assay [2] (setting [5]), 98%. Also, the IC50 is 0.2 µM in assay [2] (setting [6]) and 0.16 µM in assay [2] (setting [7]).

Regarding `OCc1ccccc1Nc1ccc(O)cc1` [Example 2c, 2-(4-Hydroxyphenylamino)benzenemethanol], the inhibition at 1 µM is 4% in assay [1], 84% in assay [2] (setting [4]) and 94% in assay [2] (setting [5]). Further, the results for the concentration for half-maximal inhibition (IC50) in assay [2] (setting [6]) and in assay [2] (setting [7]) were 0.38 µM and 0.28 µM, respectively. For the same molecule, the 50% effective dose (ED50) in assay [3] came out at 0.84 mg/kg.

Regarding `COc1ccc(Nc2ccc(O)cc2)c(CO)c1` [Example 1c, 2-(4-Hydroxyphenylamino)-5-methoxybenzenemethanol], the inhibition at 1 µM in assay [1] was determined as 2%; in assay [2] (setting [4]), 88%; in assay [2] (setting [5]), 98%. In addition, the IC50 in assay [2] (setting [6]) was 0.2 µM; in assay [2] (setting [7]), 0.09 µM. Further, the ED50 in assay [3] was found to be 0.13 mg/kg.
